Key:
Type in all cases: biochemical
B/YAM-A395T virus NA = B/YAM-A395T virus NA (Influenza B virus, UniProt C0LT34, A395T)
B/YAM-D342S virus NA = B/YAM-D342S virus NA (Influenza B virus, UniProt Q90021, D342S)
A/PR8-I222V virus NA = A/PR8-I222V virus NA (Influenza A virus (H3N2), UniProt V5P6L4, I222V)
A/PR8-S331G virus NA = A/PR8-S331G virus NA (Influenza A virus (H3N2), UniProt A0A193ACB1, S331G)
B/YAM-A395D virus NA = B/YAM-A395D virus NA (Influenza B virus, UniProt C0LT34, A395D)
A/PR8-S331R virus NA = A/PR8-S331R virus NA (Influenza A virus (H3N2), UniProt A0A193ACB1, S331R)
B/YAM-A395V virus NA = B/YAM-A395V virus NA (Influenza B virus, UniProt A0A1W5M8K9, A395V)
[1] = read-out: NA enzyme inhibition assay (mean IC50 ± SD)

SMILES: CCC(CC)[C@H](NC(C)=O)[C@@H]1[C@H](O)[C@@H](C(=O)O)C[C@H]1N=C(N)N [Peramivir, peramivir]
- fold increase in IC50 over B/BR/60/08 (B/YAM-A395T virus NA): 0.6 ± 0.08 (1.2) fold
- IC50 (B/YAM-A395T virus NA; [1]): 0.6 nM
- fold increase in IC50 over B/BR/60/08 (B/YAM-D342S virus NA): 0.4 ± 0.12 (0.8) fold
- IC50 (B/YAM-D342S virus NA; [1]): 0.4 nM
- fold increase in IC50 over A/PR8-WT (A/PR8-I222V virus NA): 0.1 ± 0.01 (1) fold
- IC50 (A/PR8-I222V virus NA; [1]): 0.1 nM
- fold increase in IC50 over A/PR8-WT (A/PR8-S331G virus NA): 0.3 ± 0.3 (3) fold
- IC50 (A/PR8-S331G virus NA; [1]): 0.3 nM
- fold increase in IC50 over B/BR/60/08 (B/YAM-A395D virus NA): 0.5 ± 0.36 (1) fold
- IC50 (B/YAM-A395D virus NA; [1]): 0.5 nM
- fold increase in IC50 over A/PR8-WT (A/PR8-S331R virus NA): 0.2 ± 0.06 (2) fold
- IC50 (A/PR8-S331R virus NA; [1]): 0.2 nM
- fold increase in IC50 over B/BR/60/08 (B/YAM-A395V virus NA): 0.8 ± 0.12 (1.6) fold
- IC50 (B/YAM-A395V virus NA; [1]): 0.8 nM

From paper PMC5764337 (PLoS ONE, 2018)
